Measurements from patent publication US20040235742A1, “Water channel opener compositions and medicinal compositions for ophthalmic use” (SANTEN PHARMACEUTICAL CO., LTD., priority 1999, published 2004).

What was measured:
lens aldose reductase = target: T1, lens aldose reductase (Homo sapiens, UniProt P15121); details: Arch. Pharm. Res., 11, 312-314 (1988); cited from earlier work
T1 construct: host or cells: lens

[1] = Combined use of an odorant substance and pilocarpine hydrochloride on lacrimation output in mice; format: in vivo
Method: The effect of the combined use of (R)-(−)carvone, i.e. the odorant substance used in Example 1, and pillocarpine hydrochloride was evaluated. The method used was as follows. The tear fluid was collected from the left eye of mice at 15-min intervals using a glass microcapillary tube (aspiration capacity 0.5 μL/32 mm). The amount of aspirated tear fluid was measured in length (mm) using calipers and converted to μL for use as a marker of lacrimation output. Mice were anesthetized by intraperitoneal administration of Nembutal Anesthetic Solution (0.2 mL/10 g body weight, dosage 60 mg/kg). After the loss of pain reflex was confirmed in the mice, the measurement of lacrimation output was started. Measurements were invariably carried out at 15-min intervals from the start to the end. After two initial measurements made 15 minutes apart, the test substance was immediately administered into the caudal vein of mice at a ratio of 0.1 mL/10 g body weight. Then, the measurement was repeated at 15-min intervals. Immediately after the measurement of lacrimation output at 15 minutes following administration of the test substance, […] pilocarpine hydrochloride was administered subcutaneously at 0.1 mL/10 g body weight (dosage 5 mg/kg). The collection of tear fluid was further carried out 4 times at 15-min intervals. […] The results on (R)-(−)-carvone (dosage 30 mg/kg) are shown in the graph in FIG. 3. […]

[2] = Lacrimation stimulating activity of odorant substances in mice; format: in vivo; details: for Change in lacrimation output after 15 minutes (%): 30 mg/kg into the caudal vein, relative to the average of two measurements before administration
Method: Then, using (R)-(−)-carvone, (+)-pregon, borneol, trans-4-methylcyclohexanol, and menthol, all of which are odorant substances, each dissolved in 0.1% hydrogenated castor oil-saline, the lacrimation-stimulating activities of these substances were evaluated in vivo. The method used was as follows.
The tear fluid was collected from the left eye of mice at 15-min intervals using a glass microcapillary tube (aspiration capacity 0.5 μL/32 mm). The amount of aspirated tear fluid was measured in length (mm) using calipers and converted to μL for use as a marker of lacrimation output. Mice were anesthetized by intraperitoneal administration of Nembutal Anesthetic Solution (0.2 mL/10 g body weight, dosage 60 mg/kg). After the loss of pain reflex was confirmed in the mice, the measurement of lacrimation output was started. Measurements were invariably carried out at 15-min intervals from the start to the end. After two initial measurements made 15 minutes apart, each test substance (dosage 30 mg/kg) was immediately administered into the caudal vein of mice at a ratio of 0.1 mL/10 g body weight. Thereafter, the collection of tear fluid was carried out at 15-min intervals.
The change in lacrimation output was expressed in the percentage of the lacrimation output at each measurement relative to the average of the lacrimation outputs at two initial measurements prior to administration of each test substance.

sodium-potassium ATPase = details: olfactory tissue; Life Sciences, 20, 1051-1062 (1977); cited from earlier work

| SMILES | Change in lacrimation output after 15 minutes (%) [2] | also measured |
| --- | --- | --- |
| C=C(C)[C@@H]1CC=C(C)C(=O)C1 [(R)-(−)-carvone] | 61.5% | inhibition of lens aldose reductase (lens aldose reductase): inhibit; change in lacrimation output, combined use with pilocarpine hydrochloride ([1]; (R)-(-)-carvone 30 mg/kg i.v., then 0.005% pilocarpine hydrochloride s.c. (dosage 5 mg/kg) 15 minutes later, FIG. 3): marked increases in lacrimation; duration of the lacrimation effect, combined use with pilocarpine ([1]; Example 4 compared with Example 3): further prolongation of the effect; increase in lacrimation output ([2]; Example 3, 15 to 30 minutes after administration): not less than 60%; effect on sodium-potassium ATPase (sodium-potassium ATPase): influence |
| CC(C)=C1CC[C@@H](C)CC1=O [(+)-pregon] | 70.2% |  |
| CC1CCC(C(C)C)C(O)C1 (stereo not shown) [Menthol, menthol] | 88.1% |  |
| CC1(C)C2CCC1(C)C(O)C2 (stereo not shown) [Borneol, borneol] | 97.5% |  |
| C[C@H]1CC[C@H](O)CC1 [Trans-4-methylcyclohexanol, trans-4-methylcyclohexanol] | 85.4% |  |
